Values of other authors as cited in US9700872B1, “Superpolar chromatographic stationary phases and extraction sorbents and their methods of synthesis” (THE FLORIDA INTERNATIONAL UNIVERSITY BOARD OF TRUSTEES, priority 2016, dated 2017).

Details: octanol/water; Top 100 EPA Priority Pollutants (Table 2)

First: CC1=CC(=O)CC(C)(C)C1 [Isophorone]
Second: CCOC(=O)c1ccccc1C(=O)OCC [Diethyl phthalate]
The “Log Kow” value of the first is lower: 1.6 for the first, 2.5 for the second.

Going from `c1ccc2c(c1)Cc1ccccc1-2` [Fluorene] to `c1ccc2c(c1)ccc1ccccc12` [Phenanthrene], the “Log Kow” value rises from 4.2 to 4.5.

Compared with `CCCl` [Chloroethane], `CCCCOC(=O)c1ccccc1C(=O)OCCCC` [Di-N-butyl phthalate] is higher in “Log Kow” value: 1.2 for the first, 4.7 for the second.

Compared with `c1ccc2c(c1)cc1ccc3cccc4ccc2c1c34` [Benzo(a)pyrene], `c1ccc2cc3ccccc3cc2c1` [Anthracene] is lower in “Log Kow” value: 6 for the first, 4.4 for the second.

Going from `Clc1ccccc1Cl` [1,2-Dichlorobenzene] to `Clc1ccccc1` [Chlorobenzene], the “Log Kow” value falls from 3.4 to 2.84.

`Brc1ccc(Oc2ccccc2)cc1` [4-Bromophenyl phenyl ether] and `Clc1ccc(Oc2ccccc2)cc1` [4-Chlorophenyl phenyl ether] are within 0.2 log units of each other in “Log Kow” value: 4.4 for the first, 4.3 for the second.

Compared with `CCCCC(CC)COC(=O)c1ccccc1C(=O)OCC(CC)CCCC` (centres unmarked) [Bis(2-Ethylhexyl)phthalate], `C1=Cc2cccc3cccc1c23` [Acenaphthylene] is lower in “Log Kow” value: 7.4 for the first, 3.7 for the second.

In the case of `c1cc2c3c(cccc3c1)CC2` [Acenaphthene], the “Log Kow” value is listed as 3.9.

Same assay, conditions: octanol/water; exemplary polyhydroxy molecules (Table 1)

Going from `OC[C@H]1O[C@H](O[C@]2(CCl)O[C@H](CCl)[C@@H](O)[C@@H]2O)[C@H](O)[C@@H](O)[C@H]1Cl` [Sucralose] to `OC[C@@H](O)[C@@H](O)[C@H](O)[C@@H](O)CO` [Sorbitol], the “Log Kow” value falls from −1.5 to −3.1.
